{"source": "patent US4820521A", "about": "“Sustained absorption pharmaceutical composition” (priority 1983, dated 1989)", "origin": "cited, not measured here", "key": {"[1]": {"test_system": "involuntary muscle", "conditions": "versus theobromine and caffeine"}, "[2]": {"conditions": "human, in vivo"}, "[3]": {"conditions": "versus caffeine"}}}
{"smiles": "Cn1c(=O)c2[nH]cnc2n(C)c1=O", "note": "[Theophylline, 1,3-dimethylxanthine]", "values": [{"measurement": "relaxant of involuntary muscle (in words)", "setting": "[1]", "result": "more powerful relaxant of involuntary muscle than either theobromine or caffeine"}, {"measurement": "minimum effective plasma concentration", "setting": "in vivo", "result": "about 5 mcg/ml"}, {"measurement": "average therapeutic concentration", "setting": "plasma", "result": "about 10 mcg/ml"}, {"measurement": "therapeutic range of concentration", "setting": "plasma", "result": "10 to 20", "unit": "µg/mL"}, {"measurement": "toxicity of levels above 20 mcg/ml", "setting": "plasma levels above 20 mcg/ml", "result": "toxic"}, {"measurement": "effect of levels below 10 mcg/ml", "setting": "plasma levels below 10 mcg/ml", "result": "ineffective"}, {"measurement": "apparent biological half-life", "setting": "[2]", "result": "4-9 hours"}, {"measurement": "diuretic action (in words)", "setting": "[3]", "result": "stronger than that of caffeine is of short duration"}]}
